Data on two compounds can be found in paper PMC5320518, “Novel Liver-targeted conjugates of Glycogen Phosphorylase Inhibitor PSN-357 for the Treatment of Diabetes: Design, Synthesis, Pharmacokinetic and Pharmacological Evaluations” (Scientific Reports, 2017).

What is called CLint scaled is the capacity of the preparation to metabolise the compound, expressed as a volume cleared per time. A lower CLint scaled goes with slow turnover. As a reminder, the half-life is how long it takes for the measured level to halve. Usually microsomal CLint stands for a measure of how fast metabolising enzymes remove a compound, apart from limits set by blood flow. High values mean rapid turnover, low ones slow turnover. The melting point is the temperature, or range, at which the solid turns liquid.

Data set [1] has as its target T1, rabbit muscle GPa (RMGPa) (Oryctolagus cuniculus, UniProt P00489).
T1 sequence (P00489 2-843 limits assumed): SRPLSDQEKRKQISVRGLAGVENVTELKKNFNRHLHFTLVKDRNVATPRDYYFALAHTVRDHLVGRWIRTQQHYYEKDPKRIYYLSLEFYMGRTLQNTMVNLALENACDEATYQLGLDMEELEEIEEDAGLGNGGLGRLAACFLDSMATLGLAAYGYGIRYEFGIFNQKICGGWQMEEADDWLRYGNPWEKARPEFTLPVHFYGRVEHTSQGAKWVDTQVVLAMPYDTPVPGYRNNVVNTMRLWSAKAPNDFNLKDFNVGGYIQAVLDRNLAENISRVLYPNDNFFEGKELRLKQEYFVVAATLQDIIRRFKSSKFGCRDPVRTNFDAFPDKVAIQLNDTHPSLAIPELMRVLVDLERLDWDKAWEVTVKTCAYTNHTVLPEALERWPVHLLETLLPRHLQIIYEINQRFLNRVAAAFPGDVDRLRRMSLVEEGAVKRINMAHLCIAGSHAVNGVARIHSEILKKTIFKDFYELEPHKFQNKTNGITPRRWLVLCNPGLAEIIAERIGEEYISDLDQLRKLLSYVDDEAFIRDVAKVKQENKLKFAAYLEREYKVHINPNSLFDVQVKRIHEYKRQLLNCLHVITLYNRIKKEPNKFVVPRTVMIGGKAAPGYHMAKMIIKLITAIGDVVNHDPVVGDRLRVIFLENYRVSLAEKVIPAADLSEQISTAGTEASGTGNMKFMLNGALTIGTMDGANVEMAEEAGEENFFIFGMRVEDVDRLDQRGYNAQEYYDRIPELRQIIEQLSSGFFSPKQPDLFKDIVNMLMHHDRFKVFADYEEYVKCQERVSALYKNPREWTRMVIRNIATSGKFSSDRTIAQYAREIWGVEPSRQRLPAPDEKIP
The data set can be described thus: RMGPa inhibition assay (phosphate release from glucose-1-phosphate). Format: biochemical. The conditions noted are these: mean ± S.D. of three determinations; NI means no inhibition. On the procedure: All the compounds were evaluated for their inhibitory activity against rabbit muscle GPa (RMGPa). The activity of RMGPa was measured through detecting the release of phosphate from glucose-1-phosphate in the direction of glycogen synthesis. CP-91149, a well-known allosteric GP inhibitor, which shares the same binding site with PSN-357, was used as the positive control and the results are summarized in Table 1[21]. […] This remarkable loss of activity was probably due to the direct steric interference by such bulky substituent of cholic acid group. […] The results is consistent with the SARs of PSN-357 that the hydroxyl of piperidine is not an essential group for the GP inhibitory activity that could be modified slightly.
The inhibitory activity of the test compounds against rabbit muscle glycogen phosphorylase a (GPa) was monitored using microplate reader (BIO-RAD) based on the published method. In brief, GPa activity was measured in the direction of glycogen synthesis by the release of phosphate from glucose-1-phosphate. Each test compound was dissolved in DMSO and diluted at different concentrations for IC50 determination. The enzyme was added into 100 μL of buffer containing 50 mM Hepes (pH = 7.2), 100 mM KCl, 2.5 mM MgCl2, 0.5 mM glucose-1-phosphate, 1 mg/mL glycogen and the test compound in 96-well microplates (Costar). After the addition of 150 μL of 1 M HCl containing 10 mg/mL ammonium molybdate and 0.38 mg/mL malachite green, reactions were run at 22 °C for 25 min, and then the phosphate absorbance was measured at 655 nm. The IC50 values were estimated by fitting the inhibition data to a dose-dependent curve using a logistic derivative equation.

Data set [2] can be described thus: Stability in simulated gastric fluid (SGF). Format: in vitro ADME. The conditions noted are these: SGF pH 1.21 with pepsin, 2 μM, 37 °C, 24 h incubation. How it is done: (§1) All the conjugates were tested for their chemical and metabolic stability in multiple assays, including simulated gastric fluid (SGF), simulated interstinal fluid (SIF), mouse plasma, and mouse liver microsome (MLM).
(§2) For the stability in SGF (Fig. 8) and SIF (Fig. 9), the conjugates could be divided into three groups: (1) stable conjugates 2, 6 and 9. […] The two conjugates were degraded within 6 h and 1 h in SGF and SIF, respectively, with alomost no conjugates at the end of the 24 h incubation in both SGF and SIF; (3) complicated conjugates 3, 4, 5 and 8.
(§3) The simulated gastrointestinal fluids were prepared according to USP specifications. For SGF, NaCl (0.12 g) and pepsin (0.18 g, from porcine stomach mucosa) was dissolved in HCl (0.42 mL) and sufficient H2O was added to make 60 mL. The pH of the test solution was determined as 1.21 by pH meter. For the SIF, KH2PO4 (0.408 g) and pancreatin (0.6 g, from porcine pancreas) was dissolved in H2O (60 mL). The pH of the test solution was determined as 6.79 by pH meter. Each test compound was dissolved in DMSO and diluted to a final concentration of 2 μM in SIF and SGF. The final concentrations of DMSO and CH3CN in the incubation mixture were 0.2% and 0.45%. Aliquots of these solutions were pipetted into glass tubes, and placed in a 37 °C shaking water bath. Test samples at corresponding time point (1, 2, 6, 24 h) were removed at the end of incubation time and immediately mixed with 800 μL of cold acetonitrile containing 500 ng/mL tolbutamide (internal standard). Samples were subjected to centrifuge at 4000 rpm, 4 °C for 20 min. Aliquots 60 μL of supernatant was combined with 120 μL water for LC-MS/MS analysis.

Data set [3] can be described thus: Stability in simulated intestinal fluid (SIF). Format: in vitro ADME. The conditions noted are these: SIF pH 6.79 with pancreatin, 2 μM, 37 °C. On the procedure:
as §1, §2, §3

A short description of data set [4]: Stability in mouse plasma. Type of data set: in vitro ADME. The conditions noted are these: 2 μM, 37 °C, 120-min test. How it is done: Frozen plasma from male C57 BL/6 mice was incubated for 5 min at 37 °C before the addition of the test compound. Then prepared 2 μM incubation sample, and aliquots of the incubation mixtures (100 μL) were taken at predetermined time points (10, 30, 60, 120 min) at 37 °C. After incubation, the mixtures was added 400 μL of 50% ACN/50% MeOH containing internal standard (IS, 200 ng/mL Tolbutamide and 20 ng/mL Buspirone) to each sample tube and then centrifuged at 13000 rpm for 8 min. Blank incubations in the absence of the test compound were also performed. The analyses of test compounds were performed by LC-MS/MS analysis.

The nature of data set [5]: Stability in mouse liver microsomes (MLM). Format: in vitro ADME. To be noted: C57BL/6, pH 7.4, n = 3. How it is done: Additionally, the compounds’ stability in microsome were evaluated by measuring the rate of compounds consumpation in MLM and the results are shown in Table 3.
The microsomal pellet was suspended in potassium phosphate buffer (100 mM, pH 7.4), 10 μM test compound or positive control (diclofenac) was added. Liver microsomes from C57BL/6 mice (BD Gentest) were pooled. The mixture of microsome solution and compound was incubated at 37 °C for about 10 min in the presence of a NADPH-regenerating system, consisting of 0.02 M DL-isocitric acid (trisodium salt), 0.1 mg/mL isocitrate dehydrogenase and 1 mM NADPH. The addition of ice-cold CH3CN (including 100 ng/mL tolbutamide as internal standard) terminated the reaction. The mixture was vortexed for approx (30 s), centrifuged (20 min, 4000 rpm) and the supernatant was collected and analysed by LC-MS/MS method.
Background: Liver microsomes are a subcellular fraction often used to study metabolism.

The next data set deals with skeletal muscle function. Also noted: method as in PMID 16046314, PMID 16731853. To be noted: prolonged (60 min) muscle contraction, perfused rat hindlimb model; cited from earlier work.

The compound `CC(C)[C@H](NC(=O)CC[C@@H](C)[C@H]1CC[C@H]2[C@@H]3[C@H](O)C[C@@H]4C[C@H](O)CC[C@]4(C)[C@H]3C[C@H](O)[C@]12C)C(=O)OC1CCN(C(=O)[C@H](Cc2ccc(F)cc2)NC(=O)c2cc3cc(Cl)ncc3[nH]2)CC1` [Conjugate 4] yielded a melting point of 185 to 187 °C. Moreover, the “IC50 (RMGPa inhibition)” value in data set [1] is recorded as “no activity”. In data set [2], the “stability in SGF (in words)” value is reported as “relatively stable”. The “time within which degraded in SIF” value in data set [3] is not above 1 h. Further, the “degradation in mouse plasma” value in data set [4] is “approximately 4%”. In addition, in data set [5], the CLint scaled at 10 μM came out at 150 mL/min/kg, the half-life at 10 μM was found to be 36.5 min and the microsomal CLint at 10 μM is 38 µL/min/mg.
With CP316819, the “greater muscle fatigue than the control group” value in the data set on skeletal muscle function is given as 35%.
